The values that follow come from patent US9253983B2, “Triazole compound and use thereof” (KUREHA CORPORATION, priority 2011, dated 2016).

One series deals with Alternaria alternata. As to the kind of experiment: Test 1 for antifungal effect, plate medium: A.m. It is filed as cell-based. As to conditions: PDA plate medium. As for the experimental part: Compound (1-1a) or Compound (1-2a) was dissolved in dimethyl sulfoxide, and the resulting solution was added to a PDA medium (potato dextrose-agar medium) at about 60° C. The medium and the solution were mixed thoroughly in a conical flask, poured into a petri dish, and allowed to solidify. In this way, a plate medium containing Compound (1-1a) or Compound (1-2a) at a certain concentration was prepared.
Meanwhile, test microorganisms cultured on a plate medium in advance were cut out with the use of a cork borer 4 mm in diameter, and were inoculated onto the compound-containing plate medium. After the inoculation, the microorganisms were cultured at their optimum growth temperatures (for example, refer to LIST OF CULTURES 1996 microorganisms 10th edition, Institute for Fermentation (foundation)) for 1 day to 7 days, and their growth was determined by measuring the diameter of their flora. The extent of growth of the microorganisms on the compound-containing plate medium was compared with that of microorganisms on a plate medium where no compound was added, and mycelial growth inhibition rate was calculated by the following equation: R=100(dc−dt)/dc where R is mycelial growth inhibition rate (%), dc is the flora diameter in untreated plate, and dt is the flora diameter in plate treated with the compound.
A larger antifungal index indicates a better antifungal effect.

For a further series, the system named is rice plant. Put plainly: Growth inhibition (adverse effects) of seed treatment on rice plant seeds. It is filed as in vivo. As to conditions: treatment amount 80 g ai/100 kg seeds, 20 days after sowing. As for the experimental part: A pot experiment was performed to evaluate the growth inhibition (adverse effects) caused by the seed treatment. Compound (1-1a) and Compound (1-2a), each of which was dissolved in DMSO to make up such a concentration that the seeds would be treated in treatment amount of 2 g to 200 g ai/100 kg seeds, were each applied to wheat seeds in a vial, and thereafter 8 wheat seeds were sowed in an 80-cm^2 pot. The pot was kept in a greenhouse with water supplied to its bottom. 20 days after the sowing, a growth measure of wheat was evaluated. A growth inhibition index was calculated based on the criteria shown by Table 10. In Table 10, a smaller growth inhibition index indicates a lesser adverse effect of growth inhibition caused by the treatment with the use of a plant disease controlling agent.
A pot experiment was performed to evaluate the growth inhibition (adverse effects) caused by the seed treatment. Compound (1-1a), which was dissolved in DMSO to make up such a concentration that the seeds would be treated in treatment amount of 80 g ai/100 kg seeds, was applied to rice plant seeds in a vial, and thereafter 16 rice plant seeds were sowed in a 50-cm^2 pot. The pot was kept in a greenhouse with water supplied to its bottom. 20 days after the sowing, a growth measure of rice plant was evaluated. A growth inhibition index was calculated as was in Experiment Example 5.

In the case of `CC1(CCl)CCC(Cc2ccc(Cl)cc2)C1(O)Cn1cncn1` (single isomer, unassigned) [Compound (1-1a), (1,2-cis, 1,5-cis)-5-(4-chlorobenzyl)-2-chloromethyl-2-methyl-1-(1H-1,2,4-triazole-1-ylmethyl)cyclopentanol], the “Antifungal index (mycelial growth inhibition rate)” value with Alternaria alternata (0.16 mg/L) is listed as 1 (Less than 60%); in the series on Alternaria alternata (0.31 mg/L) it was 4 (Less than 90% but not less than 80%); with Alternaria alternata (0.63 mg/L) it was 4 (Less than 90% but not less than 80%); in the series with Alternaria alternata (1.25 mg/L), 5 (90% or greater); in the series on Alternaria alternata (2.50 mg/L), 5 (90% or greater). Also, the Growth inhibition index in the series on rice plant is reported as 0 (50% or more).
Regarding `CC1(CCl)CCC(Cc2ccc(Cl)cc2)C1(O)Cn1cncn1` (single isomer, unassigned) [Compound (1-1b), (1,2-cis, 1,5-cis)-5-(4-chlorobenzyl)-2-chloromethyl-2-methyl-1-(1H-1,2,4-triazole-1-ylmethyl)cyclopentanol], the “Antifungal index (mycelial growth inhibition rate)” value with Alternaria alternata (0.16 mg/L) is given as 1 (Less than 60%); with Alternaria alternata (0.31 mg/L), 3 (Less than 80% but not less than 70%); in the series on Alternaria alternata (0.63 mg/L), 4 (Less than 90% but not less than 80%); with Alternaria alternata (1.25 mg/L), 4 (Less than 90% but not less than 80%); in the series with Alternaria alternata (2.50 mg/L), 5 (90% or greater). Moreover, in the series with rice plant, the Growth inhibition index is 4 (Less than 20% but 10% or more).
